Read-outs that look alike come from different tables or passages of the source.

One experiment deals with 2102EP (EC). Put plainly: XTT cell viability assay, 2102EP. It is filed as cell-based. The note with it: Homo sapiens, read-out: EC50 colour/symbol code, EC 2102EP. Here is the method:
(§1) The […] (XTT) assays were performed as described previously. In summary, for GCT and fibroblast cell lines 5 × 10^3 cells (3 × 10^3 for UC, PCa and RCC cell lines) per 96-well were seeded and different drug concentrations (see Additional file 2: Fig. S2, Additional file 3: Fig. S3) or corresponding solvents were added to the cells the following day. For drug details see Additional file 12: Table S2 C. Each condition was analyzed in four technical replicates and EC50 values were calculated by GraphPad Prism v8.
A general note: Tetrazolium dyes change colour on reduction, which living cells bring about.

The test system of another experiment is GCT cell lines. The experiment in a line: XTT cell viability assay, GCT cell lines (pre-screen / summary). The note with it: first pre-screen, XTT; for EC50: read-out: EC50. Type of experiment: cell-based, Human. Here is the method: as §1
The test system of another experiment is JAR (CC). The experiment in a line: XTT cell viability assay, JAR. Type of experiment: cell-based. The note with it: Homo sapiens, after 48 h, n = 4, read-out: EC50 colour/symbol code, CC JAR. How it is done: as §1
In another experiment the test system is TCam-2 (SE). Put plainly: XTT cell viability assay, TCam-2. Type of experiment: cell-based. The note with it: Homo sapiens, read-out: EC50 colour/symbol code, SE TCam-2. How it is done: as §1

As to `O=C(O)C1=CC(=C(c2ccc(O)c(C(=O)O)c2)c2ccc(O)c(C(=O)O)c2)C=CC1=O` [Aurintricarboxylic Acid], the EC50 with 2102EP (EC) (after 48 h, XTT, n = 4) was over 50 µM; in the experiment on GCT cell lines (Homo sapiens, GCT), over 50 µM; in the experiment with JAR (CC), over 50 µM; in the experiment on TCam-2 (SE) (after 48 h, XTT, n = 4) it was over 50 µM.

Take `COc1cc(-c2cn(C)c(=O)c3cnccc23)c(OC)cc1CN(C)C` [BI-9564]: the EC50 with 2102EP (EC) (after 48 h, XTT, n = 4) was over 50 µM; with GCT cell lines (Homo sapiens, GCT), over 50 µM; in the experiment with JAR (CC), over 50 µM; in the experiment on TCam-2 (SE) (after 48 h, XTT, n = 4), over 50 µM.

For the compound `NNCCc1ccc(NC(=O)CCCc2ccccc2)cc1` [Bizine], the EC50 in the experiment with GCT cell lines was over 50 µM.

As to `CN(C)NC(=O)CCC(=O)O` [Daminozide], the EC50 in the experiment on 2102EP (EC) (48 h), with JAR (CC) and in the experiment with TCam-2 (SE) (48 h) was over 50 µM in each case.

In the case of `O=C(O)c1ccc(CN2CCC(CN[C@@H]3C[C@H]3c3ccccc3)CC2)cc1` [GSK2879552], the EC50 is over 50 µM in the experiment with 2102EP (EC) (after 48 h, XTT, n = 4); over 50 µM in the experiment with GCT cell lines (Homo sapiens, GCT); over 50 µM with JAR (CC); over 50 µM in the experiment with TCam-2 (SE) (after 48 h, XTT, n = 4).

`NC(=O)c1cccnc1` [Nicotinamide]: the EC50 in the experiment on 2102EP (EC) (after 48 h, XTT, n = 4) is over 50 µM; in the experiment on GCT cell lines (Homo sapiens, GCT), over 50 µM; with JAR (CC), over 50 µM; with TCam-2 (SE) (after 48 h, XTT, n = 4), over 50 µM.

Take `NC(=O)C1CCCc2c1[nH]c1ccc(Cl)cc21` (stereo not shown) [Selisistat]: the EC50 in the experiment with GCT cell lines was over 50 µM.

Turning to `COc1cc(-c2cn(C)c(=O)c3cnccc23)cc(OC)c1CN1CCN(CCCCCOc2cc(-c3scnc3C)ccc2CNC(=O)[C@@H]2C[C@@H](O)CN2C(=O)[C@@H](NC(=O)C2(F)CC2)C(C)(C)C)CC1` [VZ185], the EC50 in the experiment on 2102EP (EC) (after 48 h, XTT, n = 4) lay in the range of 1 to 50 µM; in the experiment on JAR (CC) it was 1 to 50 µM; with TCam-2 (SE) (after 48 h, XTT, n = 4), 1 to 50 µM. Besides, in the experiment on GCT cell lines (SE and EC proxies TCam-2 and 2102EP), the “EC50 / effective concentration in words” value is recorded as “low micromolar concentrations”.

The values above are taken from paper PMC8742467, “Therapeutical interference with the epigenetic landscape of germ cell tumors: a comparative drug study and new mechanistical insights” (Clinical Epigenetics, 2022).
